# Data taken from the supplement of paper PMC6004109.
# Columns and labels:
# Details in all cases: temperature: 37 °C
# [1] = system: Candida glabrata ZIM 2369 (RPMI); test: Bliss independence sum of statistically significant ΔE (measured minus predicted growth inhibition) over checkerboard surface (fraction (sum of ΔE; 1 = 100%)); higher = more synergy
# [2] = system: Saccharomyces cerevisiae ZIM 2247 (RPMI); test: as above
# [3] = system: Candida glabrata ZIM 2382 (RPMI); test: as above
# [4] = system: Saccharomyces cerevisiae ZIM 2566 (RPMI); test: as above
# [5] = system: Candida glabrata ZIM 2389 (RPMI); test: as above
# [6] = system: Candida glabrata ZIM 2385 (RPMI); test: as above
# [7] = system: Candida glabrata ZIM 2344 (RPMI); test: as above
# [8] = system: Saccharomyces cerevisiae ZIM 2255 (RPMI); test: as above
# [9] = system: Saccharomyces cerevisiae ZIM 2260 (RPMI); test: as above
# [10] = system: Saccharomyces cerevisiae ZIM 2558 (RPMI); test: as above
# [11] = system: Saccharomyces cerevisiae ZIM 2269 (RPMI); test: as above
# [12] = system: Candida glabrata ZIM 2365 (RPMI); test: as above
# [13] = system: Candida glabrata ZIM 2344 (RPMI); test: FICI minimum (fractional inhibitory concentration index, Loewe) (dimensionless); higher = less synergy / more antagonism
# Description: (§1)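 CLSI M27-A3 checkerboard broth microdilution of an immunomodulatory drug (or amoxicillin) combined with an antifungal against S. cerevisiae and C. glabrata isolates. Growth was read as OD600 after incubation at 37 °C (48 h for the reported MICs). Reported quantities are the FICI (Loewe: MIC50 for azoles and immunomodulators, MIC90 for AMB; ≤0.5 synergy, ≥4 antagonism), as minimum and maximum over the surface, and the Bliss-independence sum of statistically significant ΔE (positive = synergy). Clinical isolates were tested in RPMI; C. glabrata ATCC 2001 and its pdr1Δ mutant were tested in YPD.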
# [14] = system: Saccharomyces cerevisiae ZIM 2269 (RPMI); test: as above
# Description: as §1
# [15] = system: Candida glabrata ZIM 2369 (RPMI); test: FICI maximum (fractional inhibitory concentration index, Loewe) (dimensionless); higher = less synergy / more antagonism
# Description: as §1
# [16] = system: Saccharomyces cerevisiae ZIM 2247 (RPMI); test: as above
# Description: as §1
# [17] = system: Candida glabrata ZIM 2382 (RPMI); test: as above
# Description: as §1
# [18] = system: Saccharomyces cerevisiae ZIM 2566 (RPMI); test: as above
# Description: as §1
# [19] = system: Candida glabrata ZIM 2389 (RPMI); test: as above
# Description: as §1
# [20] = system: Candida glabrata ZIM 2385 (RPMI); test: as above
# Description: as §1
# [21] = system: Candida glabrata ZIM 2344 (RPMI); test: as above
# Description: as §1
# [22] = system: Saccharomyces cerevisiae ZIM 2255 (RPMI); test: as above
# Description: as §1
# [23] = system: Saccharomyces cerevisiae ZIM 2260 (RPMI); test: as above
# Description: as §1
# [24] = system: Saccharomyces cerevisiae ZIM 2558 (RPMI); test: as above
# Description: as §1
# [25] = system: Saccharomyces cerevisiae ZIM 2269 (RPMI); test: as above
# Description: as §1
# [26] = system: Candida glabrata ZIM 2365 (RPMI); test: as above
# Description: as §1
Compound,Bliss independence sum [1],Bliss independence sum [2],Bliss independence sum [3],Bliss independence sum [4],Bliss independence sum [5],Bliss independence sum [6],Bliss independence sum [7],Bliss independence sum [8],Bliss independence sum [9],Bliss independence sum [10],Bliss independence sum [11],Bliss independence sum [12],FICI minimum [13],FICI minimum [14],FICI maximum [15],FICI maximum [16],FICI maximum [17],FICI maximum [18],FICI maximum [19],FICI maximum [20],FICI maximum [21],FICI maximum [22],FICI maximum [23],FICI maximum [24],FICI maximum [25],FICI maximum [26]
COc1c(C)c2c(c(O)c1C/C=C(\C)CCC(=O)O)C(=O)OC2 [mycophenolic acid] + C[C@@H]1[C@H](O)[C@@H](C)/C=C/C=C/C=C/C=C/C=C/C=C/C=C/[C@H](O[C@@H]2O[C@H](C)[C@@H](O)[C@H](N)[C@@H]2O)C[C@@H]2O[C@](O)(C[C@@H](O)C[C@@H](O)[C@H](O)CC[C@@H](O)C[C@@H](O)CC(=O)O[C@H]1C)C[C@H](O)[C@H]2C(=O)O [amphotericin B],0.709,-2.18,1.76,-0.484,4.37,2.79,4.74,-0.43,3.32,3.61,6.09,6.59,0.625,1.03,1.12,1.53,1.06,1.07,1.01,1.06,1.06,1.25,1.04,1.03,1.25,1.02
COc1c(C)c2c(c(O)c1C/C=C(\C)CCC(=O)O)C(=O)OC2 [mycophenolic acid] + OC(Cn1cncn1)(Cn1cncn1)c1ccc(F)cc1F [fluconazole],-2.4,-2.82,-1.7,-0.316,1.41,-0.722,6.94,-3.66,-1.55,-8.75,-3.9,-4.84,1.01,1.01,4.25,2.53,4.25,2.27,2.25,2.25,1.25,2.02,2.02,4.25,2.25,8.5
C=CC[C@@H]1/C=C(\C)C[C@H](C)C[C@H](OC)[C@H]2O[C@@](O)(C(=O)C(=O)N3CCCC[C@H]3C(=O)O[C@H](/C(C)=C/[C@@H]3CC[C@@H](O)[C@H](OC)C3)[C@H](C)[C@@H](O)CC1=O)[C@H](C)C[C@@H]2OC [tacrolimus] + CCC(C)n1ncn(-c2ccc(N3CCN(c4ccc(OCC5COC(Cn6cncn6)(c6ccc(Cl)cc6Cl)O5)cc4)CC3)cc2)c1=O [itraconazole],3.73,6.82,1.94,9.53,8.47,5.63,5.44,7.07,10.8,8.75,4.75,2.36,0.125,0.75,0.5,0.52,1,1,0.126,0.5,0.5,0.502,0.5,0.51,2.5,1.01
C=CC[C@@H]1/C=C(\C)C[C@H](C)C[C@H](OC)[C@H]2O[C@@](O)(C(=O)C(=O)N3CCCC[C@H]3C(=O)O[C@H](/C(C)=C/[C@@H]3CC[C@@H](O)[C@H](OC)C3)[C@H](C)[C@@H](O)CC1=O)[C@H](C)C[C@@H]2OC [tacrolimus] + C[C@@H]1[C@H](O)[C@@H](C)/C=C/C=C/C=C/C=C/C=C/C=C/C=C/[C@H](O[C@@H]2O[C@H](C)[C@@H](O)[C@H](N)[C@@H]2O)C[C@@H]2O[C@](O)(C[C@@H](O)C[C@@H](O)[C@H](O)CC[C@@H](O)C[C@@H](O)CC(=O)O[C@H]1C)C[C@H](O)[C@H]2C(=O)O [amphotericin B],4.67,20.9,0.265,8.22,0.693,7.14,7.88,11.4,9.87,9.97,19.1,2.51,0.516,0.0825,1.25,0.126,1.01,0.625,1,1,1,0.508,0.5,0.501,0.501,0.51
C=CC[C@@H]1/C=C(\C)C[C@H](C)C[C@H](OC)[C@H]2O[C@@](O)(C(=O)C(=O)N3CCCC[C@H]3C(=O)O[C@H](/C(C)=C/[C@@H]3CC[C@@H](O)[C@H](OC)C3)[C@H](C)[C@@H](O)CC1=O)[C@H](C)C[C@@H]2OC [tacrolimus] + OC(Cn1cncn1)(Cn1cncn1)c1ccc(F)cc1F [fluconazole],1.98,8.81,1.68,0.935,8,5.34,4.23,2.75,6.04,1.84,8.35,2.21,0.25,0.255,1,1,0.5,1,1,1.01,0.5,1,1,1,1,1
